The results in this text go back to publication PMC7956564, “Porphyromonas gingivalis HmuY and Bacteroides vulgatus Bvu—A Novel Competitive Heme Acquisition Strategy” (International Journal of Molecular Sciences, 2021).

The experiment concerns the target T1, Bvu (Phocaeicola vulgatus, UniProt A6L2D9).
T1 construct: gene BVU_2192
In words: biochemical.

T1 sequence (A6L2D9 entry or part of it): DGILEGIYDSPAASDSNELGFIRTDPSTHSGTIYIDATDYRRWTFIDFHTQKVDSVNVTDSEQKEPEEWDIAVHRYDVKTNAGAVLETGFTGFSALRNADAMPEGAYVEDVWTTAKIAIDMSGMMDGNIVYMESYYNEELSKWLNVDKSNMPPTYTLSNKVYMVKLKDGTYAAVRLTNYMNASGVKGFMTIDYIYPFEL

For `C=CC1=C(C)C2=Cc3c(C=C)c(C)c4[n]3[Fe][n]3c(c(C)c(CCC(=O)O)c3=CC3=NC(=C4)C(C)=C3CCC(=O)O)=CC1=N2` [Fe(II)heme], the Kd (in general, a measure of binding affinity in units of concentration) worked out at 1.6 nM.
